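Method: 48-hour compound exposure of cells in 96-well plates, five concentrations, linear interpolation of endpoints. GI50 marks 50% less growth.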 The source made the active and inactive calls. Rule as the data show it: active = GI50 up to about 1.1 µM and inactive = higher.
Columns and labels:
Test in all cases: growth of human tumour cells (NCI), 48 h
OVCAR-8 = system: OVCAR-8
RPMI-8226 = system: RPMI-8226
UACC-257 = system: UACC-257
HT-29 = system: HT-29
HCT-116 = system: HCT-116
HCT-15 = system: HCT-15
HOP-62 = system: HOP-62
K562 = system: K562
MDA-N = system: MDA-N
UO-31 = system: UO-31
KM12 = system: KM12
T47D = system: T47D
SW-620 = system: SW-620
PC-3 = system: PC-3
BT-549 = system: BT-549
HCC 2998 = system: HCC 2998
SF-268 = system: SF-268
SK-OV-3 = system: SK-OV-3
SK-MEL-2 = system: SK-MEL-2
UACC-62 = system: UACC-62
SR = system: SR
NCI/ADR-RES = system: NCI/ADR-RES
IGROV-1 = system: IGROV-1
NCI-H226 = system: NCI-H226
COLO 205 = system: COLO 205
NCI-H23 = system: NCI-H23
Hs-578T = system: Hs-578T
NCI-H522 = system: NCI-H522
RXF 393 = system: RXF 393
A498 = system: A498
EKVX = system: EKVX
SN12C = system: SN12C
TK-10 = system: TK-10
U-251 = system: U-251
OVCAR-3 = system: OVCAR-3
MDA-MB-435 = system: MDA-MB-435
MOLT-4 = system: MOLT-4
M14 = system: M14
OVCAR-5 = system: OVCAR-5
786-0 = system: 786-0
ACHN = system: ACHN
CAKI-1 = system: CAKI-1
LOX IMVI = system: LOX IMVI
SK-MEL-28 = system: SK-MEL-28
SF-295 = system: SF-295
MCF7 = system: MCF7
MDA-MB-231 = system: MDA-MB-231
A549 = system: A549
SF-539 = system: SF-539
CCRF-CEM = system: CCRF-CEM
DU-145 = system: DU-145
HOP-92 = system: HOP-92
NCI-H460 = system: NCI-H460
Malme-3M = system: Malme-3M
SK-MEL-5 = system: SK-MEL-5
SNB-75 = system: SNB-75
SNB-19 = system: SNB-19
OVCAR-4 = system: OVCAR-4

Compound: O=C(Cc1ccccc1)NCCCN(CCCCN(CCCNC(=O)Cc1ccccc1)C(=O)OCc1ccccc1)C(=O)OCc1ccccc1
- GI50 (OVCAR-8): > 100 µM (inactive)
- GI50 (RPMI-8226): 4.19 µM (inactive)
- GI50 (UACC-257): > 100 µM (inactive)
- GI50 (HT-29): > 24.8 µM (inactive)
- GI50 (HCT-116): > 100 µM (inactive)
- GI50 (HCT-15): > 43.4 µM
- GI50 (HOP-62): > 100 µM (inactive)
- GI50 (K562): 7.24 µM (inactive)
- GI50 (MDA-N): > 100 µM (inactive)
- GI50 (UO-31): 1.66 µM (inactive)
- GI50 (KM12): > 100 µM (inactive)
- GI50 (T47D): > 36.4 µM (inactive)
- GI50 (SW-620): > 100 µM (inactive)
- GI50 (PC-3): 7.45 µM (inactive)
- GI50 (BT-549): > 100 µM (inactive)
- GI50 (HCC 2998): > 38.1 µM (inactive)
- GI50 (SF-268): > 100 µM (inactive)
- GI50 (SK-OV-3): > 100 µM (inactive)
- GI50 (SK-MEL-2): > 100 µM (inactive)
- GI50 (UACC-62): > 100 µM (inactive)
- GI50 (SR): 30.4 µM (inactive)
- GI50 (NCI/ADR-RES): > 100 µM (inactive)
- GI50 (IGROV-1): > 100 µM (inactive)
- GI50 (NCI-H226): > 100 µM (inactive)
- GI50 (COLO 205): 6.07 µM (inactive)
- GI50 (NCI-H23): > 100 µM (inactive)
- GI50 (Hs-578T): > 100 µM (inactive)
- GI50 (NCI-H522): 1.42 µM (inactive)
- GI50 (RXF 393): > 31.4 µM (inactive)
- GI50 (A498): > 75.9 µM (inactive)
- GI50 (EKVX): > 49.8 µM (inactive)
- GI50 (SN12C): > 100 µM (inactive)
- GI50 (TK-10): > 100 µM (inactive)
- GI50 (U-251): > 100 µM (inactive)
- GI50 (OVCAR-3): > 100 µM (inactive)
- GI50 (MDA-MB-435): > 100 µM (inactive)
- GI50 (MOLT-4): 4.49 µM (inactive)
- GI50 (M14): > 100 µM (inactive)
- GI50 (OVCAR-5): > 100 µM (inactive)
- GI50 (786-0): > 100 µM (inactive)
- GI50 (ACHN): > 21.6 µM (inactive)
- GI50 (CAKI-1): 4.74 µM (inactive)
- GI50 (LOX IMVI): > 100 µM (inactive)
- GI50 (SK-MEL-28): > 100 µM (inactive)
- GI50 (SF-295): > 100 µM (inactive)
- GI50 (MCF7): > 81.1 µM (inactive)
- GI50 (MDA-MB-231): > 100 µM (inactive)
- GI50 (A549): > 43 µM (inactive)
- GI50 (SF-539): > 100 µM (inactive)
- GI50 (CCRF-CEM): > 20.3 µM (inactive)
- GI50 (DU-145): > 100 µM (inactive)
- GI50 (HOP-92): > 25.2 µM (inactive)
- GI50 (NCI-H460): > 19.9 µM (inactive)

Compound: CCN(CC)CCNc1ccc2ncn3c4c(OC)ccc(OC)c4c(=O)c1c23
- GI50 (OVCAR-8): 10.8 µM (inactive)
- GI50 (UACC-257): > 100 µM (inactive)
- GI50 (HT-29): > 10 µM (inactive)
- GI50 (HCT-116): 0.587 µM (active)
- GI50 (HCT-15): 16 µM
- GI50 (HOP-62): > 100 µM (inactive)
- GI50 (K562): 10.4 µM (inactive)
- GI50 (MDA-N): 10.8 µM (inactive)
- GI50 (UO-31): > 100 µM (inactive)
- GI50 (KM12): 9.16 µM (inactive)
- GI50 (T47D): > 100 µM (inactive)
- GI50 (SW-620): 0.853 µM (active)
- GI50 (PC-3): > 10 µM (inactive)
- GI50 (BT-549): > 10 µM (inactive)
- GI50 (HCC 2998): 15.3 µM (inactive)
- GI50 (SF-268): 3.24 µM (inactive)
- GI50 (SK-OV-3): 19.1 µM (inactive)
- GI50 (UACC-62): 22.6 µM (inactive)
- GI50 (SR): 3.72 µM (inactive)
- GI50 (NCI/ADR-RES): 5.6 µM (inactive)
- GI50 (IGROV-1): > 10 µM (inactive)
- GI50 (NCI-H226): 90.8 µM (inactive)
- GI50 (COLO 205): 0.841 µM (active)
- GI50 (NCI-H23): 22.6 µM (inactive)
- GI50 (Hs-578T): > 10 µM (inactive)
- GI50 (NCI-H522): 15.7 µM (inactive)
- GI50 (RXF 393): 1.71 µM (inactive)
- GI50 (Malme-3M): 23.8 µM (inactive)
- GI50 (SK-MEL-5): 17.2 µM (inactive)
- GI50 (A498): 93.3 µM (inactive)
- GI50 (EKVX): 15.3 µM (inactive)
- GI50 (SN12C): > 10 µM (inactive)
- GI50 (TK-10): > 100 µM (inactive)
- GI50 (U-251): 15.5 µM (inactive)
- GI50 (OVCAR-3): 30.3 µM (inactive)
- GI50 (MDA-MB-435): > 10 µM (inactive)
- GI50 (MOLT-4): 1.45 µM (inactive)
- GI50 (M14): 18.7 µM (inactive)
- GI50 (786-0): 11.5 µM (inactive)
- GI50 (ACHN): 4.1 µM (inactive)
- GI50 (CAKI-1): 86.5 µM (inactive)
- GI50 (SK-MEL-28): 21.2 µM (inactive)
- GI50 (SNB-75): 10.6 µM (inactive)
- GI50 (SF-295): 13.3 µM (inactive)
- GI50 (MCF7): 3.57 µM (inactive)
- GI50 (MDA-MB-231): 12 µM (inactive)
- GI50 (A549): 22.5 µM (inactive)
- GI50 (SF-539): 20.8 µM (inactive)
- GI50 (SNB-19): 20 µM (inactive)
- GI50 (CCRF-CEM): 1.22 µM (inactive)
- GI50 (DU-145): 12.9 µM (inactive)
- GI50 (HOP-92): 11.2 µM (inactive)
- GI50 (NCI-H460): 4.4 µM (inactive)
- GI50 (OVCAR-4): 6.11 µM (inactive)

Reference: ChEMBL document CHEMBL1201862, “PubChem BioAssay data set” (2004)
